Tests used:
CB2 = target: T1, CB2 (Homo sapiens, UniProt P34972); assay: Competitive [3H]CP55,940 radioligand binding, CB2-transfected HEK293T cell membrane; conditions: competition with [3H]CP55,940; mean ± S.D.
T1 construct: expressed in transfected cells; host or cells: HEK293T cells, calcium phosphate transfection, membrane preparation
Text: (§1) To evaluate binding affinity of ABK5 analogs that have a difference in the position of substituents in the N-phenyl ring (Figure 1), we performed competitive radiolabeled ligand binding assays using cell membrane from HEK293T cells transfected with human CB2 receptors. […] ABK5-1, ABK5-2, and ABK5-6 dose-dependently competed with [^3H]CP55,940 and decreased the specific binding of the radiolabeled agonist, which reflects the binding of test compounds to CB2. […] Therefore, ABK5-5 was not considered for further evaluation in this study. […] We also examined CB2 selectivity (versus CB1) of the three compounds by performing similar binding assays using membrane from CB1 expressing HEK293 cells instead of CB2 expressing cells. […] Therefore, ABK5-1 and 5-2 maintained the CB2 subtype selectivity of ABK5.
(§2) In the experiment, 1 × 10^6 HEK293T cells were seeded in a 10-cm cell culture dish and cultured for 24 h. Cells were transfected with CB1 or CB2 using the calcium phosphate method. Approximately one day after transfection, cells were harvested and centrifuged at 4 °C for 5 min at 500× g. The pellet was washed with phosphate buffered saline (PBS) twice and resuspended in PBS containing 1% protease-inhibitor cocktail (Sigma-Aldrich, St. Louis, MO, USA) consisting of 104 mM 4-(2-aminoethyl) benzene sulfonyl fluoride hydrochloride (AEBSF), 80 μM apronitin, 4 mM bestatin, 1.64 mM E-64, 2 mM leupeptin, 1.5 mM pepstatin A. Then the cells were subjected to nitrogen cavitation under 750 psi for 5 min using a Parr cell disruption bomb. The lysate was centrifuged at 500× g for 10 min at 4 °C and the supernatant was spun at 116,000× g for 45 min at 4 °C. The pellet, consisting of the cell membrane expressing CB1 or CB2, was resuspended in TME buffer solution (25 mM Tris-HCl, 5 mM MgCl2, and 1 mM EDTA, pH 7.4) with 7% (w/v) sucrose/TME buffer. The concentration of the membrane protein was determined by the Bradford assay (Bradford, 1976).
Membrane protein was mixed with 1 nM to 10 μM of the test compounds and 1 nM [^3H]CP55,940 (164.9 Ci/mmol; PerkinElmer life Sciences, Waltham, MA, USA), and TME buffer supplemented with 0.2% BSA was used to bring the total volume to 200 μL. [^3H]CP55,940 acts as tracer and agonists that bind the target receptor compete with [^3H]CP55,940. Samples were incubated for 1 h at 30 °C. Ten μM unlabeled CP55,940 was used to determine non-specific binding. […] A Beckman Coulter 6500 liquid scintillation counter was used to measure the radioactivity of the samples.
Results are presented as the mean ± standard deviation (S.D.). […] The Ki values in the ligand binding assay were calculated using the Prism software (GraphPad Software Inc., San Diego, CA, USA), using IC50 values obtained from non-linear regression fitted to the one-site binding model. […]

CB1 receptor = target: T2, CB1 receptor (Homo sapiens, UniProt P21554); assay: Competitive [3H]CP55,940 radioligand binding, membrane from CB1 expressing HEK293 cells; conditions: for Ki CB1 (CP55,940): competition with [3H]CP55,940, N.B. = no specific binding detected up to 10 μM of test compounds; for CB1 receptor binding: not bound up to: test compound 1 nM to 10 μM
T2 construct: expressed in transfected cells; host or cells: HEK293T cells (called 'HEK293 cells' in Results), calcium phosphate transfection, membrane preparation
Text: as §1, §2
Membrane protein was mixed with 1 nM to 10 μM of the test compounds and 1 nM [^3H]CP55,940 (164.9 Ci/mmol; PerkinElmer life Sciences, Waltham, MA, USA), and TME buffer supplemented with 0.2% BSA was used to bring the total volume to 200 μL. [^3H]CP55,940 acts as tracer and agonists that bind the target receptor compete with [^3H]CP55,940. Samples were incubated for 1 h at 30 °C. Ten μM unlabeled CP55,940 was used to determine non-specific binding. Reactions were stopped by adding 5% BSA/TME buffer (w/v) and samples were filtered through a Brandel cell harvester using Whatman GF/C filter paper. Ultima Gold XR liquid scintillation cocktail (PerkinElmer Life Sciences, Waltham, MA, USA) was then added and vortexed. A Beckman Coulter 6500 liquid scintillation counter was used to measure the radioactivity of the samples.
Results are presented as the mean ± standard deviation (S.D.). The ligand binding assays and the GTPγS binding assays were both carried out in duplicate for three independent experiments. The Ki values in the ligand binding assay were calculated using the Prism software (GraphPad Software Inc., San Diego, CA, USA), using IC50 values obtained from non-linear regression fitted to the one-site binding model. The Cheng-Prusoff equation [48], which is used for calculation of Ki value is shown below. (1) Ki=IC50/1+L/Kd

Jurkat cells = assay: CXCL12-mediated Jurkat cell transwell migration assay; format: cell-based, human; conditions: 2 h pretreatment, 2 h migration
Procedure: During inflammation, immune cells are attracted by chemoattractants and migrate to the site of inflammation. Therefore, an inhibitory effect on chemotaxis of immune cells is also a sign of anti-inflammatory effect. We evaluated ABK5-1 and ABK5-2 to determine if these compounds can inhibit CXCL12-mediated Jurkat cell migration. Jurkat cells were incubated with various concentrations of ABK5-1 or 5-2 and loaded on the transwells and allowed to migrate through the transwells to the bottom chamber, which include CXCL12. The cell number in the bottom chamber was determined after 2 h of loading. ABK5-1 inhibited Jurkat cell migration at 10 and 25 μM (Figure 5A). […] Again, to verify these observations were not due to cytotoxicity of test compounds, cell viability was also monitored by incubating cells with compound and CXCL12 without the transwells.
Figure 5 Effect of ABK5-1 and ABK5-2 on CXCL12-mediated Jurkat cell migration. Transwell migration of Jurkat cells treated with (A,B) ABK5-1 or (C,D) ABK5-2. Frames (A,C): Cells were treated with vehicle or various concentrations of test compounds for 2 h and then allowed to migrate through transwells for 2 h. Cell numbers migrated to the lower chamber are indicated as relative to vehicle (DMSO) alone. Results are indicated as the mean ± S.D. of three independent assays performed in triplicate for each concentration. Viability of cells treated with (B) ABK5-1 or (D) ABK5-2 after the migration assay was also examined. Cells were treated exactly the same but without transwells and viability was determined. Results are indicated as the mean ± S.D. of three independent assays performed for each concentration. One-way ANOVA plus Dunnett’s post-hoc test were used for both migration and viability assays. **** p < 0.0001 (versus vehicle control group).
The migration assay was performed as described previously. Briefly, a Transwell Multiple Well Plate with permeable polycarbonate membrane inserts ([…], 24-well, Corning, Corning, NY, USA) were used in migration assays. Jurkat cells were seeded at 2.5 × 10^6 cells/mL in RPMI medium containing 2.5% FBS and treated with DMSO or test compound for 2 h. Then a sample of cells were transferred to the top well. RPMI medium containing 0 to 1000 ng/mL CXCL12 and the appropriate concentration of test compound was loaded to the bottom chamber. Cells were allowed to migrate for 2 h and cells migrated from the top well to the bottom chamber were counted or measured by CCK-8 (Dojindo Molecular Technologies, Inc., Rockville, MD, USA) following the manufacturer instructions. For evaluation of cell viability, the same procedure used for the migration assay was performed without the transwells and the viable cells were counted or measured by CCK-8.

T2 sequence (P21554 whole entry): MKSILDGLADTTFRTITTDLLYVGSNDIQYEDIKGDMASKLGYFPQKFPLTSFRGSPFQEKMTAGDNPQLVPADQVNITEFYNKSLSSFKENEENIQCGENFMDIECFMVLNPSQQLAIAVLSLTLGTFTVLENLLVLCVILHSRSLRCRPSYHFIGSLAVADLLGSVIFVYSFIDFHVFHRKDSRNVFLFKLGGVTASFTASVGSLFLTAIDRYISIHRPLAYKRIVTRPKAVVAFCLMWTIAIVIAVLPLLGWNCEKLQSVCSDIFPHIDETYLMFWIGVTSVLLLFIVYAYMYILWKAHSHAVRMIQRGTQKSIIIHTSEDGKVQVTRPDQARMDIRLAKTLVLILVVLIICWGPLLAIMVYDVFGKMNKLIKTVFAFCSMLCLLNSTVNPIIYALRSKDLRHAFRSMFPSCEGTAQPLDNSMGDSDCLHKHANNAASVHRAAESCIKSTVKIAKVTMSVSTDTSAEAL
T1 sequence (P34972 whole entry): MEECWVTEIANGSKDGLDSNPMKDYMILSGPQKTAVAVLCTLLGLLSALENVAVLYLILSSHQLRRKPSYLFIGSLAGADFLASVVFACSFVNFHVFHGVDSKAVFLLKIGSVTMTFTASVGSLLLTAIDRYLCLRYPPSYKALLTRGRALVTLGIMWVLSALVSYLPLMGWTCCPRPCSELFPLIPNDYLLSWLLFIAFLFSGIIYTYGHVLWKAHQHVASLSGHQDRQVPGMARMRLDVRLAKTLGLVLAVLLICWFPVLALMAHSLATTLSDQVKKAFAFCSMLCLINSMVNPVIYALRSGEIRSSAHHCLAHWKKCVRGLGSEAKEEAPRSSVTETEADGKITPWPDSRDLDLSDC

Compound	Ki (CB2)	Ki CB1 (CP55,940) (CB1 receptor)	CB1 receptor binding: not bound up to (CB1 receptor)	decrease of cell migration (Jurkat cells; 10 μM)	decrease of cell migration (Jurkat cells; 25 μM)
CCOC(=O)c1ccccc1NC(=O)CN(c1ccc(C)cc1C)S(=O)(=O)c1ccccc1 [ABK5-1]	28 ± 5 nM	N.B. ^c	> 10 µM	about 35%	~43%
CCOC(=O)c1ccccc1NC(=O)CN(c1c(C)cccc1C)S(=O)(=O)c1ccccc1 [ABK5-2]	69 ± 19 nM	N.B. ^c	> 10 µM	32%	32%

— paper PMC8073686, “Characterization of Subtype Selective Cannabinoid CB2 Receptor Agonists as Potential Anti-Inflammatory Agents” (Pharmaceuticals, 2021)
